Article PMC7380640, “Development of a brain-permeable peptide nanofiber that prevents aggregation of Alzheimer pathogenic proteins” (PLoS ONE, 2020)
Where a SMILES comes first, the peptide text is derived from it.

What was measured:
[1] = system: rat pheochromocytoma (PC12); conditions: cited from earlier work
Description: (§1) Alzheimer’s disease (AD) is a progressive neurodegenerative disorder and the most common form of dementia characterized by senile plaque (SP), which is the extracellular deposit of amyloidβ(Aβ)aggregates,and neurofibrillary tangle, which is the intracellular accumulation of phosphorylated tau protein [3]. Although highly ordered linear Aβaggregates, known as amyloid fibrils, are the major component of SP and one of the hallmark features of AD, soluble oligomers of aggregates are regarded as more cytotoxic. The therapeutic use of peptide inhibitors of pathological ...

Aβ peptides = conditions: cited from earlier work
Description: as §1

trypsin = target: T1, trypsin (Bos taurus, UniProt P00760); assay: Proteolytic digestion with trypsin (GPC); assay type: in vitro ADME; conditions: 200 μM peptide or nanofiber, 12 μM trypsin (type XIII, bovine pancreas), 5 mM phosphate 100 mM NaCl pH 7.5, 37°C, GPC peak of FVIFLDVK, A220
T1 construct: purchased type XIII; host or cells: bovine pancreas
T1 sequence (P00760 24-246): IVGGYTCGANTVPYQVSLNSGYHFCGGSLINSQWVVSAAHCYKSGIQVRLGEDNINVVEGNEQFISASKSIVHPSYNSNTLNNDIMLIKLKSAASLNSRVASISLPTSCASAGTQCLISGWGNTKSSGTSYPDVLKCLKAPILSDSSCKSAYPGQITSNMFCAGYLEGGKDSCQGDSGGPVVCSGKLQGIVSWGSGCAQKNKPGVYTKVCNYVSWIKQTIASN
Experimental: The αAC peptides or the neutralαAC nanofiber (200 μM) were incubated with trypsin (12 μM, type XIII from bovine pancreas) in 5 mM phosphate buffer containing 100 mM NaCl (pH 7.5) at 37°C. The molecular mass of the digested peptides were analyzed with MALDI-TOF mass spectroscopy using a BrukerAutoflex Speed instrument. The proteolyzed sample of αAC nanofibers was centrifuged (10,000g for 5 min) to separate the peptide fragments from the nanofibers. The apparent rate of proteolysis of αAC(71–88) was estimated from gel permeation chromatography analysis using a Superdex^TMpeptide 10/300 GL column (GE Healthcare, Piscataway, NJ). Water including 30% acetonitrile and 0.1% TFA was used as the elution solvent.

Aβ (1–42) = conditions: 100 nM of Aβ (1–42); cited from earlier work
Experimental: The neutral αAC nanofibers suppressed aggregation of Aβ (1–42), without promoting the aggregation of 3RMBDof tau (Fig 2) and cytotoxicity of Aβ (1–42) against PC12 cells (Fig 7). Several brain-permeable low molecular weight compounds that suppress the aggregation of amyloidβ have been proposed as therapeutic drugs for AD [48–55]; unfortunately, the affinity of these compounds for Aβ tends to be low. For example, >100 nM of curcumin is required to inhibit the cytotoxicity of 100 nM of Aβ (1–42).

Q: Which results are given for “DFVIFLDVKHFSPEDLTVK [CPP-fused αAC peptides, cell-penetrating peptide-fused type peptides of the αA-crystallin peptide]”?
A: effect on Aβ toxicity [1]: suppress Aβ toxicity; effect on Aβ fibril formation (Aβ peptides): prevented Aβ fibril formation

Q: Which “fraction of αAC(71–88) digested (single cleavage) after 24 h proteolysis” value (trypsin) does the source give for `CC[C@H](C)[C@H](NC(=O)[C@@H](NC(=O)[C@@H](N)Cc1ccccc1)C(C)C)C(=O)N[C@@H](Cc1ccccc1)C(=O)N[C@@H](CC(C)C)C(=O)N[C@@H](CC(=O)O)C(=O)N[C@H](C(=O)N[C@@H](CCCCN)C(=O)N[C@@H](Cc1c[nH]cn1)C(=O)N[C@@H](Cc1ccccc1)C(=O)N[C@@H](CO)C(=O)N1CCC[C@H]1C(=O)N[C@@H](CCC(=O)O)C(=O)N[C@@H](CC(=O)O)C(=O)N[C@@H](CC(C)C)C(=O)N[C@H](C(=O)N[C@H](C(=O)N[C@@H](CCCCN)C(=O)O)C(C)C)[C@@H](C)O)C(C)C` [αAC(71–88)] (H-FVIFLDVKHFSPEDLTVK-OH) here?
A: ca. 90%

Q: Which “concentration required to inhibit the cytotoxicity of Aβ (1–42)” value (Aβ (1–42)) does the source give for `COc1cc(/C=C/C(=O)CC(=O)/C=C/c2ccc(O)c(OC)c2)ccc1O` [curcumin] here?
A: > 100 nM

Q: With DFVIFLDVKHFSPEDLTVK as the molecule, how does the “effect on toxicity of Aβ in PC12” value ([1]; rat pheochromocytoma (PC12)) read?
A: suppress the toxicity

Q: And the “effect on fibril formation of Aβ peptides” value (Aβ peptides)?
A: inhibit fibril formation
